US20250313533A1, “QUINOLINE CARBOXYLIC ACID ESTER COMPOUND AND PREPARATION METHOD AND USE THEREOF” (priority 2019, published 2025)

Key:
cucumber seedlings = assay: Safety for plant growth after application; type: in vivo; settings: dosage 200 ppm
Procedure, shortened: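 Safety to the crop is assessed on cucumber seedlings in indoor pots by tracking how treatment alters leaf area, chlorophyll level and height growth rate.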

[1] = test system: pathogenic bacteria causing fruit blotch in watermelons; assay: In vitro bactericidal activity, fruit blotch in watermelons; type: cell-based, acidovorax; settings: read-out: inhibitory rate; for inhibition at 1 ppm: dosage 1 ppm; for inhibition at 5 ppm: dosage 5 ppm
[2] = test system: pathogenic bacteria causing black rot in Chinese cabbages; assay: In vitro bactericidal activity, black rot in Chinese cabbages; type: cell-based, xanthomonas; settings: Xanthomonas, read-out: inhibitory rate; for inhibition at 1 ppm: dosage 1 ppm; for inhibition at 5 ppm: dosage 5 ppm
[3] = test system: bacterial wilt in tobacco; assay: whole plant or invertebrate; settings: Nicotiana tabacum, read-out: efficacy against bacterial wilt in tobacco
[4] = test system: pathogenic bacteria causing bacterial angular leaf spot in cucumbers; assay: In vitro bactericidal activity, bacterial angular leaf spot in cucumbers; type: cell-based, pseudomonas; settings: read-out: inhibitory rate; for inhibition at 1 ppm: dosage 1 ppm; for inhibition at 5 ppm: dosage 5 ppm
[5] = test system: pathogenic bacteria causing bacterial wilt in cassava; assay: organism not typed; type: cell-based; settings: read-out: inhibitory rate
[6] = test system: pathogenic bacteria causing stem rot in sweet potatoes; assay: In vitro bactericidal activity, stem rot in sweet potatoes; type: cell-based, dikia; settings: read-out: inhibitory rate; for inhibition at 1 ppm: dosage 1 ppm; for inhibition at 5 ppm: dosage 5 ppm
bacterial blight in rice = assay: whole plant or invertebrate; settings: Oryza sativa, read-out: efficacy against bacterial blight in rice
[7] = test system: pathogenic bacteria causing bacterial blight in rice; assay: whole plant or invertebrate; type: cell-based, xanthomonas; settings: read-out: inhibitory rate
[8] = test system: pathogenic bacteria causing fire blight in pears; assay: In vitro bactericidal activity, fire blight in pears; type: cell-based, erwinia; settings: Erwinia, read-out: inhibitory rate; for inhibition at 1 ppm: dosage 1 ppm; for inhibition at 5 ppm: dosage 5 ppm
[9] = test system: fruit blotch in watermelons; assay: whole plant or invertebrate; settings: read-out: efficacy against fruit blotch in watermelons
black shank in potatoes = assay: Living crops in vivo protective activity, potatoes (root irrigation); settings: Solanum tuberosum, read-out: efficacy against black shank in potatoes; for pest or weed control at 5 ppm: dosage 5 ppm; for pest or weed control at 10 ppm: dosage 10 ppm
Experimental: Root irrigation was carried out on the potatoes for tests according to the designed concentration of the agents. The dosage for each plant was 200 mL and was kept consistent (also for the control). The black shank bacteria were inoculated on the second day after the application. The results were investigated according to the disease condition.

[10] = test system: soft rot in Chinese cabbages; assay: whole plant or invertebrate; settings: 48 h, read-out: efficacy against soft rot in Chinese cabbages
[11] = test system: pathogenic bacteria causing bacterial wilt in tobacco; assay: whole plant or invertebrate; type: cell-based, ralstonia; settings: read-out: inhibitory rate
[12] = test system: stem rot in sweet potatoes; assay: whole plant or invertebrate; settings: read-out: efficacy against stem rot in sweet potatoes
[13] = test system: pathogenic bacteria causing black shank in potatoes; assay: In vitro bactericidal activity, black shank in potatoes; type: cell-based; settings: read-out: inhibitory rate; for inhibition at 1 ppm: dosage 1 ppm; for inhibition at 5 ppm: dosage 5 ppm
[14] = test system: indoor potted cucumber seedlings; assay: Effect of improving growth and development of crops; type: in vivo; design: Rate of growth rate increase (%): concentration or dose not given beside the values; settings: versus blank control; for Rate of chlorophyll content increase (%) / Rate of leaf area increase (%): 14 days after application; for Rate of growth rate increase (%): plant height 14 days after application; for Rate of leaf area increase (%): second leaf
Procedure, shortened: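 SPAD chlorophyll, plant height and second-leaf dimensions measured at application and 14 d later; leaf area from length (base to tip) and width (upper shoulder).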

COCCOC(=O)c1cn(C2CC2)c2cc(SCC(F)(F)F)c(F)cc2c1=O [Compound 390]
safety for plant growth (discoloration, necrosis, wilt, malformation) (cucumber seedlings): safe for plant growth | inhibition at 1 ppm [1]: ≥ 90% | inhibition at 5 ppm [1]: ≥ 90% | inhibition at 1 ppm [2]: ≥ 90% | inhibition at 5 ppm [2]: ≥ 90% | pest or weed control at 5 ppm [3]: ≥ 90% | pest or weed control at 10 ppm [3]: ≥ 90% | inhibition at 1 ppm [4]: ≥ 90% | inhibition at 5 ppm [4]: ≥ 90% | inhibition at 1 ppm [5]: ≥ 90% | inhibition at 5 ppm [5]: ≥ 90% | inhibition at 1 ppm [6]: ≥ 90% | inhibition at 5 ppm [6]: ≥ 90% | pest or weed control at 5 ppm (bacterial blight in rice): ≥ 90% | pest or weed control at 10 ppm (bacterial blight in rice): ≥ 90% | inhibition at 1 ppm [7]: ≥ 90% | inhibition at 5 ppm [7]: ≥ 90% | inhibition at 1 ppm [8]: ≥ 90% | inhibition at 5 ppm [8]: ≥ 90% | pest or weed control at 5 ppm [9]: ≥ 90% | pest or weed control at 10 ppm [9]: ≥ 90% | pest or weed control at 5 ppm (black shank in potatoes): ≥ 90% | pest or weed control at 10 ppm (black shank in potatoes): ≥ 90% | pest or weed control at 5 ppm [10]: ≥ 90% | pest or weed control at 10 ppm [10]: ≥ 90% | inhibition at 1 ppm [11]: ≥ 90% | inhibition at 5 ppm [11]: ≥ 90% | pest or weed control at 5 ppm [12]: ≥ 90% | pest or weed control at 10 ppm [12]: ≥ 90% | inhibition at 1 ppm [13]: ≥ 90% | inhibition at 5 ppm [13]: ≥ 90% | Rate of chlorophyll content increase (%) [14]: 17% | Rate of growth rate increase (%) [14]: 13% | Rate of leaf area increase (%) [14]: 15%

CNc1cc2c(cc1F)c(=O)c(C(=O)OCCO)cn2C1CC1 [Compound 400]
safety for plant growth (discoloration, necrosis, wilt, malformation) (cucumber seedlings): safe for plant growth | inhibition at 1 ppm [1]: ≥ 90% | inhibition at 5 ppm [1]: ≥ 90% | inhibition at 1 ppm [2]: ≥ 90% | inhibition at 5 ppm [2]: ≥ 90% | pest or weed control at 5 ppm [3]: ≥ 90% | pest or weed control at 10 ppm [3]: ≥ 90% | inhibition at 1 ppm [4]: ≥ 90% | inhibition at 5 ppm [4]: ≥ 90% | inhibition at 1 ppm [5]: ≥ 90% | inhibition at 5 ppm [5]: ≥ 90% | inhibition at 1 ppm [6]: ≥ 90% | inhibition at 5 ppm [6]: ≥ 90% | pest or weed control at 5 ppm (bacterial blight in rice): ≥ 90% | pest or weed control at 10 ppm (bacterial blight in rice): ≥ 90% | inhibition at 1 ppm [7]: ≥ 90% | inhibition at 5 ppm [7]: ≥ 90% | inhibition at 1 ppm [8]: ≥ 90% | inhibition at 5 ppm [8]: ≥ 90% | pest or weed control at 5 ppm [9]: ≥ 90% | pest or weed control at 10 ppm [9]: ≥ 90% | pest or weed control at 5 ppm (black shank in potatoes): ≥ 90% | pest or weed control at 10 ppm (black shank in potatoes): ≥ 90% | pest or weed control at 5 ppm [10]: ≥ 90% | pest or weed control at 10 ppm [10]: ≥ 90% | inhibition at 1 ppm [11]: ≥ 90% | inhibition at 5 ppm [11]: ≥ 90% | pest or weed control at 5 ppm [12]: ≥ 90% | pest or weed control at 10 ppm [12]: ≥ 90% | inhibition at 1 ppm [13]: ≥ 90% | inhibition at 5 ppm [13]: ≥ 90% | Rate of chlorophyll content increase (%) [14]: 17% | Rate of growth rate increase (%) [14]: 13% | Rate of leaf area increase (%) [14]: 18%

CNc1cc2c(cc1F)c(=O)c(C(=O)OCCOC)cn2C1CC1 [Compound 401]
safety for plant growth (discoloration, necrosis, wilt, malformation) (cucumber seedlings): safe for plant growth | inhibition at 1 ppm [1]: ≥ 90% | inhibition at 5 ppm [1]: ≥ 90% | inhibition at 1 ppm [2]: ≥ 90% | inhibition at 5 ppm [2]: ≥ 90% | pest or weed control at 5 ppm [3]: ≥ 90% | pest or weed control at 10 ppm [3]: ≥ 90% | inhibition at 1 ppm [4]: ≥ 90% | inhibition at 5 ppm [4]: ≥ 90% | inhibition at 1 ppm [5]: ≥ 90% | inhibition at 5 ppm [5]: ≥ 90% | inhibition at 1 ppm [6]: ≥ 90% | inhibition at 5 ppm [6]: ≥ 90% | pest or weed control at 5 ppm (bacterial blight in rice): ≥ 90% | pest or weed control at 10 ppm (bacterial blight in rice): ≥ 90% | inhibition at 1 ppm [7]: ≥ 90% | inhibition at 5 ppm [7]: ≥ 90% | inhibition at 1 ppm [8]: ≥ 90% | inhibition at 5 ppm [8]: ≥ 90% | pest or weed control at 5 ppm [9]: ≥ 90% | pest or weed control at 10 ppm [9]: ≥ 90% | pest or weed control at 5 ppm (black shank in potatoes): ≥ 90% | pest or weed control at 10 ppm (black shank in potatoes): ≥ 90% | pest or weed control at 5 ppm [10]: ≥ 90% | pest or weed control at 10 ppm [10]: ≥ 90% | inhibition at 1 ppm [11]: ≥ 90% | inhibition at 5 ppm [11]: ≥ 90% | pest or weed control at 5 ppm [12]: ≥ 90% | pest or weed control at 10 ppm [12]: ≥ 90% | inhibition at 1 ppm [13]: ≥ 90% | inhibition at 5 ppm [13]: ≥ 90% | Rate of chlorophyll content increase (%) [14]: 13% | Rate of growth rate increase (%) [14]: 10% | Rate of leaf area increase (%) [14]: 10%

CCNc1cc2c(cc1F)c(=O)c(C(=O)OCCO)cn2C1CC1 [Compound 407]
safety for plant growth (discoloration, necrosis, wilt, malformation) (cucumber seedlings): safe for plant growth | inhibition at 1 ppm [1]: ≥ 90% | inhibition at 5 ppm [1]: ≥ 90% | inhibition at 1 ppm [2]: ≥ 90% | inhibition at 5 ppm [2]: ≥ 90% | pest or weed control at 5 ppm [3]: ≥ 90% | pest or weed control at 10 ppm [3]: ≥ 90% | inhibition at 1 ppm [4]: ≥ 90% | inhibition at 5 ppm [4]: ≥ 90% | inhibition at 1 ppm [5]: ≥ 90% | inhibition at 5 ppm [5]: ≥ 90% | inhibition at 1 ppm [6]: ≥ 90% | inhibition at 5 ppm [6]: ≥ 90% | pest or weed control at 5 ppm (bacterial blight in rice): ≥ 90% | pest or weed control at 10 ppm (bacterial blight in rice): ≥ 90% | inhibition at 1 ppm [7]: ≥ 90% | inhibition at 5 ppm [7]: ≥ 90% | inhibition at 1 ppm [8]: ≥ 90% | inhibition at 5 ppm [8]: ≥ 90% | pest or weed control at 5 ppm [9]: ≥ 90% | pest or weed control at 10 ppm [9]: ≥ 90% | pest or weed control at 5 ppm (black shank in potatoes): ≥ 90% | pest or weed control at 10 ppm (black shank in potatoes): ≥ 90% | pest or weed control at 5 ppm [10]: ≥ 90% | pest or weed control at 10 ppm [10]: ≥ 90% | inhibition at 1 ppm [11]: ≥ 90% | inhibition at 5 ppm [11]: ≥ 90% | pest or weed control at 5 ppm [12]: ≥ 90% | pest or weed control at 10 ppm [12]: ≥ 90% | inhibition at 1 ppm [13]: ≥ 90% | inhibition at 5 ppm [13]: ≥ 90% | Rate of chlorophyll content increase (%) [14]: 15% | Rate of growth rate increase (%) [14]: 13% | Rate of leaf area increase (%) [14]: 11%
